Reference: patent US10077241B2 (Janssen Pharmaceutica NV, priority 2014, dated 2018)

Key:
[1] = biological target: T1, TGR5 (STC1 cell line) (Mus musculus, UniProt Q80SS6); assay: STC1 cAMP Agonist EC50 Determination
T1 sequence (Q80SS6 1-329): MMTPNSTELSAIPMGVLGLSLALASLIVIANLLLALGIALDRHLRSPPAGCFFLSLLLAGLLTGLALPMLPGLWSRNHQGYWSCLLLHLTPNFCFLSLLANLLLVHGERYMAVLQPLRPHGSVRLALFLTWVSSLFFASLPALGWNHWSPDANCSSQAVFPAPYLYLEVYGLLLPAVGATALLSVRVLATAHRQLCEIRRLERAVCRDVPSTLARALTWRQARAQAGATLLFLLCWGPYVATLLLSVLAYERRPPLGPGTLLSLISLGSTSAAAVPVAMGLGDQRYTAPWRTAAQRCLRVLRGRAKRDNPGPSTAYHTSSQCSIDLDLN

[2] = biological target: T2, TGR5 (NCI-H716 cell line) (Homo sapiens, UniProt Q8TDU6); assay: NCI-H716 cAMP Agonist EC50 Determination
T2 sequence (Q8TDU6 1-330): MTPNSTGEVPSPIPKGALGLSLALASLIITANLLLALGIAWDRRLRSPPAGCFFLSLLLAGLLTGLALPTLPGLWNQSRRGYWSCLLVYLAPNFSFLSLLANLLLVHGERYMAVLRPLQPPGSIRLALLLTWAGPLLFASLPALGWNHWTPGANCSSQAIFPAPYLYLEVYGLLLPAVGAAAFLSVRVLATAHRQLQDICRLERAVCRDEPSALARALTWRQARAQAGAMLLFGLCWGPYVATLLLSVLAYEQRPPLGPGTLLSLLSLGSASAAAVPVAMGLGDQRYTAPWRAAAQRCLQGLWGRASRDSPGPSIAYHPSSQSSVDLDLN

Row | SMILES | EC50 [1] | EC50 [2]
1 | COc1ccc(C2(C)CCCc3nc(SCc4c(F)cc(Br)cc4F)n(-c4ccc(F)cc4)c32)cc1OC (centres unmarked) [Example 109, 2-((4-bromo-2,6-difluorobenzyl)thio)-7-(3,4-dimethoxyphenyl)-1-(4-fluorophenyl)-7-methyl-4,5,6,7-tetrahydro-1H-benzo[d]imidazole] | 200 nM | 3600 nM
2 | COCCNC(=O)c1cc(F)c(CSc2nc3c(n2-c2ccc(F)cc2)C(C)(c2ccc(F)c(OC)c2)CCC3)c(F)c1 (centres unmarked) [Example 124, 3,5-difluoro-4-(((7-(4-fluoro-3-methoxyphenyl)-1-(4-fluorophenyl)-7-methyl-4,5,6,7-tetrahydro-1H-benzo[d]imidazol-2-yl)thio)methyl)-N-(2-methoxyethyl)benzamide] | 800 nM | > 50000 nM
3 | COc1cc(C2CCCc3nc(SCc4c(F)cc(/C=C5\SC(=O)NC5=O)cc4F)n(-c4ccc(F)cc4)c32)ccc1Cl (centres unmarked) [Example 37, (5Z)-5-[[4-([[7-(4-chloro-3-methoxyphenyl)-1-(4-fluorophenyl)-4,5,6,7-tetrahydro-1H-1,3-benzodiazol-2-yl]sulfanyl]methyl)-3,5-difluorophenyl]methylidene]-1,3-thiazolidine-2,4-dione] | 14900 nM | > 50000 nM
4 | COc1cc(C2CCCc3nc(SCc4c(F)cccc4Cl)n(-c4ccc(F)c(F)c4F)c32)ccc1Cl (centres unmarked) [Example 9, 7-(4-chloro-3-methoxyphenyl)-2-((2-chloro-6-fluorobenzyl)thio)-1-(2,3,4-trifluorophenyl)-4,5,6,7-tetrahydro-1H-benzo[d]imidazole] | 9860 nM | > 50000 nM
5 | COc1cc(C2CCCc3nc(SCc4c(F)cccc4C#N)n(-c4ccc(F)cc4)c32)ccc1Cl (centres unmarked) [Example 14, 2-([[7-(4-chloro-3-methoxyphenyl)-1-(4-fluorophenyl)-4,5,6,7-tetrahydro-1H-1,3-benzodiazol-2-yl]sulfanyl]methyl)-3-fluorobenzonitrile] | 530 nM | > 50000 nM
6 | COc1cc(C2CCCc3nc(SCc4c(F)cc(OCCOCCOCCOCCO)cc4F)n(-c4ccc(F)cc4)c32)ccc1Cl (centres unmarked) [Example 23, 1-[4-([[7-(4-chloro-3-methoxyphenyl)-1-(4-fluorophenyl)-4,5,6,7-tetrahydro-1H-1,3-benzodiazol-2-yl]sulfanyl]methyl)-3,5-difluorophenyl]-1,4,7,10-tetraoxadodecan-12-ol] | 660 nM | > 50000 nM
7 | COc1cc(C2(C)CCCc3nc(SCc4c(F)ccc(OCCN(C)C)c4F)n(-c4ccc(F)cc4)c32)ccc1Cl (centres unmarked) [Example 96, 2-(3-((7-(4-chloro-3-methoxyphenyl)-1-(4-fluorophenyl)-7-methyl-4,5,6,7-tetrahydro-1H-benzo[d]imidazol-2-ylthio)methyl)-2,4-difluorophenoxy)-N,N-dimethylethanamine trifluoroacetic acid] | 13400 nM | > 50000 nM
8 | COc1cc(C2CCCc3nc(SCc4ncccc4F)n(-c4ccc(F)cc4)c32)ccc1Cl (centres unmarked) [Example 52, 2-((3-fluoropyridin-2-yl)methylthio)-7-(4-chloro-3-methoxyphenyl)-1-(4-fluorophenyl)-4,5,6,7-tetrahydro-1H-benzo[d]imidazole trifluoroacetic acid] | 450 nM | > 50000 nM
9 | COc1cccc(C2CCCc3nc(SCc4c(F)cncc4F)n(-c4ccc(F)cc4)c32)c1 (centres unmarked) [Example 71, 2-(((3,5-difluoropyridin-4-yl)methyl)thio)-1-(4-fluorophenyl)-7-(3-methoxyphenyl)-4,5,6,7-tetrahydro-1H-benzo[d]imidazole] | 1910 nM | > 50000 nM
10 | COCCOCCOCCOCCNC(=O)c1cc(F)c(CSc2nc3c(n2-c2ccc(F)cc2)C(c2ccc(OC)c(OC)c2)CCC3)c(F)c1 (centres unmarked) [Example 66, 4-(((7-(3,4-dimethoxyphenyl)-1-(4-fluorophenyl)-4,5,6,7-tetrahydro-1H-benzo[d]imidazol-2-yl)thio)methyl)-3,5-difluoro-N-(2,5,8,11-tetraoxatridecan-13-yl)benzamide] | 900 nM | 2400 nM
